Data: patent US6303626A, “Pharmaceutical formulations in dry form for the oral administration of a cyclic quaternary ammonium compound” (Sanofi-Synthelabo, priority 1997, dated 2001)
Like-named read-outs stand apart in the source and are kept apart here.

Columns and labels:
[1] = Solubility of compound A in water at the saturation point, 24 h, room temperature, UV spectrometry; format: physicochemical; settings: for solubility at 24 h: water, room temperature, read-out: Concentration of compound A (solubility in water at saturation)
Description: 1. Solubility of Compound A

[2] = Solubility in different media / solvents; format: physicochemical; settings: dmso, organic solvent or mixture; read-out: Solubility in dimethyl sulfoxide (DMSO)
Caco-2 cells = format: in vitro ADME; settings: polysorbate 80 added to a solution of compound A in the cell culture medium
Description: This line is conventionally used for evaluating the ability of compounds to permeate the epithelium (Crit. Rev. Ther. Drug Carrier System. 1991, 8 (4), 105-330).
2. Evaluation of the Intestinal Transepithelial Passage of Compound A
Caco-2 cells are inoculated onto microporous polycarbonate filters covered with collagen. The cellular monolayer formed on the filter then makes it possible to separate an apical compartment (imitating the intestinal lumen) from a basal compartment (imitating the blood circulation).
The composition containing the compound to be studied is then placed on the apical side and the passage of this compound, dispersed or solubilized in Hank's medium, through this cellular barrier is evaluated by measuring the kinetics of its appearance on the basal side. This aqueous medium, of pH 6.5, has the following composition: NaCl=8.0 g/l; KCl=0.4 g/l; CaCl2 =0.19 g/l; MgCl2 =0.1 g/l; MgSO4 =0.1 g/l; Na2 HPO4 =0.09 g/l; KH2 PO4 =0.06 g/l; NaHCO3 =0.35 g/l; glucose=1 g/l; phenol red=0.01 g/l. […]
Various non-ionic surfactants or agents said to improve absorption, such as a C8 -C10 fatty acid or one of its derivatives, were added to the formulation described above, placed in Hank's medium, and the relative rate of intestinal transepithelial passage of compound A in these formulations was measured.

in vivo = settings: rat, 0.6% aqueous solution of compound A in methyl cellulose, read-out: Estimated absorption
Description: In this model, the permeability to compound A dissolved in dimethyl sulfoxide (DMSO) is 3.4.10^-7 cm/s. Furthermore, studies performed on the rat with a 0.6% aqueous solution of compound A in methyl cellulose have shown that its estimated absorption is less than 1%.

CC(C)Oc1cccc(CC(=O)N2CCC[C@](CC[N+]34CCC(c5ccccc5)(CC3)CC4)(c3ccc(Cl)c(Cl)c3)C2)c1 [compound A, (S)-1-{2-[3-(3,4-dichlorophenyl)-1-(3-iso-propoxyphenylacetyl)piperidin-3-yl]ethyl}-4-phenyl-1-azoniabicyclo[2.2.2]octane]
Solubility in water, dependence on pH ([1]; pH 1 to 9): low and not dependent on the pH
solubility at 24 h ([1]; pH 1): 310 µg/mL
solubility at 24 h ([1]; pH 3): 310 µg/mL
solubility at 24 h ([1]; pH 5): 310 µg/mL
solubility at 24 h ([1]; pH 7): 290 µg/mL
solubility at 24 h ([1]; pH 9): 310 µg/mL
solubility [2]: 168000 µg/mL
Effect of addition of polysorbate 80 on transepithelial passage (Caco-2 cells): substantially improves the transepithelial passage
Fa (in vivo): < 1%
